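Each compound was tested at five concentrations against cells in 96-well plates for 48 hours. Here, GI50 denotes the concentration required for 50% inhibition of growth.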 Active and inactive are the calls of the source. Cut-off read from the data, not from the text of the source: active = GI50 up to about 1.1 µM and inactive = higher.
What was measured:
Assay in all cases: NCI anticancer screen, dose series, 48 h
786-0 = test system: 786-0
A498 = test system: A498
A549 = test system: A549
ACHN = test system: ACHN
CAKI-1 = test system: CAKI-1
CCRF-CEM = test system: CCRF-CEM
COLO 205 = test system: COLO 205
DLD-1 = test system: DLD-1
DMS-114 = test system: DMS-114
DMS-273 = test system: DMS-273
EKVX = test system: EKVX
HCC 2998 = test system: HCC 2998
HCT-116 = test system: HCT-116
HCT-15 = test system: HCT-15
HL-60 = test system: HL-60
HOP-18 = test system: HOP-18
HOP-62 = test system: HOP-62
HOP-92 = test system: HOP-92
HT-29 = test system: HT-29
IGROV-1 = test system: IGROV-1
K562 = test system: K562
KM-20L2 = test system: KM-20L2
KM12 = test system: KM12
LOX IMVI = test system: LOX IMVI
LXFL 529 = test system: LXFL 529
M14 = test system: M14
M19-MEL = test system: M19-MEL
MOLT-4 = test system: MOLT-4
Malme-3M = test system: Malme-3M
NCI-H23 = test system: NCI-H23
NCI-H460 = test system: NCI-H460
NCI-H522 = test system: NCI-H522
OVCAR-3 = test system: OVCAR-3
OVCAR-4 = test system: OVCAR-4
OVCAR-5 = test system: OVCAR-5
OVCAR-8 = test system: OVCAR-8
RPMI-8226 = test system: RPMI-8226
RXF 393 = test system: RXF 393
SF-268 = test system: SF-268
SF-295 = test system: SF-295
SF-539 = test system: SF-539
SK-MEL-28 = test system: SK-MEL-28
SK-MEL-2 = test system: SK-MEL-2
SK-MEL-5 = test system: SK-MEL-5
SK-OV-3 = test system: SK-OV-3
SN12C = test system: SN12C
SNB-19 = test system: SNB-19
SNB-75 = test system: SNB-75
SNB-78 = test system: SNB-78
SR = test system: SR
SW-620 = test system: SW-620
TK-10 = test system: TK-10
U-251 = test system: U-251
UACC-257 = test system: UACC-257
UACC-62 = test system: UACC-62
UO-31 = test system: UO-31

CCOC(=O)NC(=O)c1cn(-c2ccc(CCOC(=O)NCCCCCCNC(=O)OCCc3ccc(-n4c(=O)[nH]cc(C(=O)NC(=O)OCC)c4=O)cc3)cc2)c(=O)[nH]c1=O was tested, and the GI50 (786-0) was 48.5 µM (inactive), the GI50 (A498) was > 80.4 µM (inactive) and the GI50 (A549) was > 100 µM (inactive). The GI50 (ACHN) was 29.4 µM (inactive), the GI50 (CAKI-1) was > 100 µM (inactive) and the GI50 (CCRF-CEM) was 32.6 µM (inactive). The GI50 (COLO 205) was > 100 µM (inactive), the GI50 (DLD-1) was > 100 µM (inactive) and the GI50 (DMS-114) was > 75.2 µM (inactive). For the same molecule, the GI50 (DMS-273) was > 79.8 µM (inactive), the GI50 (EKVX) was 53.2 µM (inactive) and the GI50 (HCC 2998) was > 100 µM (inactive). The GI50 (HCT-116) was > 100 µM (inactive), the GI50 (HCT-15) was > 100 µM and the GI50 (HL-60) was > 100 µM (inactive). For the same molecule, the GI50 (HOP-18) was > 100 µM (inactive), the GI50 (HOP-62) was 37.6 µM (inactive) and the GI50 (HOP-92) was > 72.4 µM (inactive). The GI50 (HT-29) was > 100 µM (inactive), the GI50 (IGROV-1) was 75.2 µM (inactive) and the GI50 (K562) was > 100 µM (inactive). For the same molecule, the GI50 (KM-20L2) was > 100 µM (inactive), the GI50 (KM12) was > 100 µM (inactive) and the GI50 (LOX IMVI) was 56.6 µM (inactive). For the same molecule, the GI50 (LXFL 529) was 22.2 µM (inactive), the GI50 (M14) was > 100 µM (inactive) and the GI50 (M19-MEL) was 47 µM (inactive). The GI50 (MOLT-4) was 58.1 µM (inactive), the GI50 (Malme-3M) was 50 µM (inactive) and the GI50 (NCI-H23) was 49.4 µM (inactive). For the same molecule, the GI50 (NCI-H460) was 28.8 µM (inactive), the GI50 (NCI-H522) was 22.4 µM (inactive) and the GI50 (OVCAR-3) was > 100 µM (inactive). The GI50 (OVCAR-4) was > 100 µM (inactive), the GI50 (OVCAR-5) was > 100 µM (inactive) and the GI50 (OVCAR-8) was 40.6 µM (inactive). The GI50 (RPMI-8226) was > 100 µM (inactive), the GI50 (RXF 393) was > 100 µM (inactive) and the GI50 (SF-268) was > 49 µM (inactive). The GI50 (SF-295) was 31.6 µM (inactive), the GI50 (SF-539) was 23.7 µM (inactive) and the GI50 (SK-MEL-28) was > 100 µM (inactive). For the same molecule, the GI50 (SK-MEL-2) was > 100 µM (inactive), the GI50 (SK-MEL-5) was 78.7 µM (inactive) and the GI50 (SK-OV-3) was 47.6 µM (inactive). The GI50 (SN12C) was > 100 µM (inactive), the GI50 (SNB-19) was 23.2 µM (inactive) and the GI50 (SNB-75) was 27.5 µM (inactive). For the same molecule, the GI50 (SNB-78) was 58.2 µM (inactive), the GI50 (SR) was > 62.8 µM (inactive) and the GI50 (SW-620) was > 100 µM (inactive). The GI50 (TK-10) was 58.3 µM (inactive), the GI50 (U-251) was 33.2 µM (inactive) and the GI50 (UACC-257) was > 72.8 µM (inactive). The GI50 (UACC-62) was 24.1 µM (inactive) and the GI50 (UO-31) was > 65.8 µM (inactive).
